These results are taken from US11076595B2, “1-(n,n-disubstituted carbamoyl) 4-(substituted sulfonyl)triazolin-5-one derivative, 4-(n,n-disubstituted carbamoyl) 1-(substituted sulfonyl)triazolin-5-one derivative, and herbicide containing said derivative as active ingredient” (HOKKO CHEMICAL INDUSTRY CO., LTD., priority 2017, dated 2021).

Common to all, as to type: in vivo
Experiment [1] has as its system Echinochloa crus-galli. The experiment can be described thus: Test Example 14: herbicidal effect test by foliage treatment in upland field. To be noted: 7 days after sowing, 120 g/10a, 14 days after treatment. As to the method: (§1) This test was performed with two replications per one formulation concentration plot, and 14 days after the formulation treatments, the weed suppression rate (%) was determined according to the following equation (Math. 2). Weed suppression rate (%)=(1−average dry weight (g) of plants in treated plots/average dry weight (g) of plants in untreated plots)×100 [Math. 2]
(§2) A pot having a size of 36 cm^2 was filled with field soil (alluvial soil) and after uniformly mixing the soil of the surface layer of 1 cm with 20 grains of each weed seed of crabgrass, Echinochloa crus-galli, Chenopodium album and Amaranthus viridis, the surface layer was pressed lightly. Seven Days after the sowing, an emulsifiable concentrate prepared according to Formulation Example 15 by using the compound shown in Table 12 below was diluted with water, and the water-diluted formulation was sprayed on the soil surface at a ratio of 100 liter per 10 are. The application rate of the active ingredient, by conversion, corresponded to 120 g per 10 are. Fourteen Days after the formulation treatment, the herbicidal effect was evaluated by the same criteria as in Test Example 11.

Another experiment concerns Amaranthus viridis. The description is as above. To be noted: 7 days after sowing, 120 g/10a, 14 days after treatment. On the procedure:
as §1, §2

Experiment [2] concerns Lindernia pyxidaria. As to the kind of experiment: Test Example 11: herbicidal effect test by soil treatment in paddy field. To be noted: 120 g/10a active ingredient, 14 days after treatment. The method, boiled down: (§3)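 Pre-emergence paddy test, 120 g a.i./10 are, emulsifiable concentrate diluted in water and added dropwise to ~3 cm flood water right after sowing (30 seeds/species, 0–1 cm depth, fertilized puddled soil). Greenhouse; 2 replicates; dry-weight suppression (%) vs untreated, day 14.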

The test system of experiment [3] is Scirpus juncoides. The description is as above. Conditions: 120 g/10a active ingredient, 14 days after treatment. The method, boiled down:
as §3

Experiment [4] concerns Echinochloa crus-galli. The description is as above. To be noted: 120 g/10a active ingredient, 14 days after treatment. The method, boiled down:
as §3

In experiment [5] the test system is Monochoria vaginalis. Described as above. To be noted: 120 g/10a active ingredient, 14 days after treatment. The method, boiled down:
as §3

Another experiment has as its system Chenopodium album. The experiment can be described thus: Test Example 14: herbicidal effect test by foliage treatment in upland field. Conditions: 7 days after sowing, 120 g/10a, 14 days after treatment. As to the method: as §2
A further experiment deals with crabgrass. The description is as above. Conditions: 7 days after sowing, 120 g/10a, 14 days after treatment. As to the method:
as §2

The subject of experiment [6] is Lindernia pyxidaria. The experiment can be described thus: Test Example 12: herbicidal effect test by treatment during growing period in paddy field. Conditions: 120 g/10a; treatment seven days after sowing in flooded paddy pot; assessed 14 days after treatment. The method, boiled down:
(§4)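 Water-diluted emulsifiable concentrate added dropwise to flooded pots (~3 cm water) 7 d after sowing; rate 120 g active ingredient per 10 are. Weeds grown from 30 seeds each in puddled paddy soil under greenhouse conditions. Dry-weight suppression rate relative to untreated plots determined 14 d after treatment, duplicates.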

Experiment [7] relates to Scirpus juncoides. Described as above. Conditions: 120 g/10a; treatment seven days after sowing in flooded paddy pot; assessed 14 days after treatment. The method, boiled down: as §4
The subject of experiment [8] is Echinochloa crus-galli. Described as above. Conditions: 120 g/10a; treatment seven days after sowing in flooded paddy pot; assessed 14 days after treatment. The method, boiled down: as §4
Experiment [9] deals with Monochoria vaginalis. The description is as above. To be noted: 120 g/10a; treatment seven days after sowing in flooded paddy pot; assessed 14 days after treatment. The method, boiled down:
as §4

As to `CC(C)N(C(=O)n1cnn(S(=O)(=O)C(C)C)c1=O)c1ccc(Cl)cc1F` [Compound 11-67], the “herbicidal effect, Echinochloa crus-galli” value with Echinochloa crus-galli [1] amounted to 90%. Besides, in the experiment with Amaranthus viridis, the “herbicidal effect, Amaranthus viridis” value was 60%. The “Weed suppression rate (%) Lindemia pyxidaria” value with Lindernia pyxidaria [2] and in the experiment on Lindernia pyxidaria [6] was 90% throughout. The “Weed suppression rate (%) Scirpus juncoides” value in the experiment with Scirpus juncoides [3] and in the experiment with Scirpus juncoides [7] was 90% each time. Besides, the “Weed suppression rate (%) Echinochloa crus-galli” value in the experiment on Echinochloa crus-galli [4] and in the experiment with Echinochloa crus-galli [8] was 100% in each case. For the same compound, the “Weed suppression rate (%) Monochoria vaginalis” value in the experiment on Monochoria vaginalis [5] and with Monochoria vaginalis [9] was 90% in each case. Further, the “herbicidal effect, Chenopodium album” value with Chenopodium album stood at 60%. For the same compound, in the experiment on crabgrass, the “herbicidal effect, Crabgrass” value is 90%.
In the case of `CC(C)N(C(=O)n1cnn(S(=O)(=O)C(C)C)c1=O)c1ccc(Cl)cc1Br` [Compound 11-71], the “herbicidal effect, Echinochloa crus-galli” value in the experiment with Echinochloa crus-galli [1] is 100%. The “herbicidal effect, Amaranthus viridis” value in the experiment on Amaranthus viridis is 60%. Also, the entries for the “Weed suppression rate (%) Lindemia pyxidaria” value in the experiment with Lindernia pyxidaria [2] and in the experiment with Lindernia pyxidaria [6] were 90% and 70%, respectively. Further, the “Weed suppression rate (%) Scirpus juncoides” value in the experiment on Scirpus juncoides [3] and with Scirpus juncoides [7] was 100% in each case. The “Weed suppression rate (%) Echinochloa crus-galli” value with Echinochloa crus-galli [4] and in the experiment on Echinochloa crus-galli [8] was 100% throughout. Moreover, the “Weed suppression rate (%) Monochoria vaginalis” value in the experiment with Monochoria vaginalis [5] and in the experiment on Monochoria vaginalis [9] was 70% in each case. The “herbicidal effect, Chenopodium album” value with Chenopodium album came to 70%. Besides, the “herbicidal effect, Crabgrass” value with crabgrass came to 100%.
Consider `Cc1cc(Cl)ccc1N(C(=O)n1cnn(S(=O)(=O)C(C)C)c1=O)C(C)C` [Compound 11-74], for which the “herbicidal effect, Echinochloa crus-galli” value with Echinochloa crus-galli [1] turned out to be 80%. In addition, in the experiment with Amaranthus viridis, the “herbicidal effect, Amaranthus viridis” value came out at 90%. For the same compound, the “Weed suppression rate (%) Lindemia pyxidaria” value with Lindernia pyxidaria [2] and in the experiment on Lindernia pyxidaria [6] was 80% throughout. In addition, the “Weed suppression rate (%) Scirpus juncoides” value in the experiment with Scirpus juncoides [3] and in the experiment on Scirpus juncoides [7] was 90% each time. The “Weed suppression rate (%) Echinochloa crus-galli” value with Echinochloa crus-galli [4] and with Echinochloa crus-galli [8] was 90% each time. Moreover, the “Weed suppression rate (%) Monochoria vaginalis” value with Monochoria vaginalis [5] and in the experiment with Monochoria vaginalis [9] was 80% in each case. The “herbicidal effect, Chenopodium album” value in the experiment with Chenopodium album is reported as 80%. In addition, the “herbicidal effect, Crabgrass” value in the experiment with crabgrass is listed as 90%.
As to `CC(C)N(C(=O)n1cnn(S(=O)(=O)C(C)C)c1=O)c1ccc(C(F)(F)F)cc1F` [Compound 11-76], the “herbicidal effect, Echinochloa crus-galli” value in the experiment with Echinochloa crus-galli [1] was determined as 100%. Moreover, the “herbicidal effect, Amaranthus viridis” value in the experiment on Amaranthus viridis is listed as 80%. In addition, the entries for the “Weed suppression rate (%) Lindemia pyxidaria” value with Lindernia pyxidaria [2] and in the experiment on Lindernia pyxidaria [6] were 80% and 60%, respectively. Besides, the “Weed suppression rate (%) Scirpus juncoides” value with Scirpus juncoides [3] and with Scirpus juncoides [7] was 60% throughout. Besides, the “Weed suppression rate (%) Echinochloa crus-galli” value in the experiment on Echinochloa crus-galli [4] and with Echinochloa crus-galli [8] was 100% throughout. Further, the “Weed suppression rate (%) Monochoria vaginalis” value with Monochoria vaginalis [5] was determined as 100%; with Monochoria vaginalis [9] it was 80%. Moreover, the “herbicidal effect, Chenopodium album” value in the experiment on Chenopodium album turned out to be 60%. For the same compound, the “herbicidal effect, Crabgrass” value with crabgrass was 100%.
On to `C=CS(=O)(=O)n1ncn(C(=O)N(c2ccc(F)cc2F)C(C)C)c1=O` [Compound 11-134], for which the “herbicidal effect, Echinochloa crus-galli” value with Echinochloa crus-galli [1] was found to be 40%. Also, the “herbicidal effect, Amaranthus viridis” value with Amaranthus viridis came to 40%. Further, the “Weed suppression rate (%) Lindemia pyxidaria” value in the experiment with Lindernia pyxidaria [2] and with Lindernia pyxidaria [6] was 40% each time. In addition, the “Weed suppression rate (%) Scirpus juncoides” value in the experiment on Scirpus juncoides [3] and in the experiment on Scirpus juncoides [7] was 40% throughout. For the same compound, the “Weed suppression rate (%) Echinochloa crus-galli” value in the experiment with Echinochloa crus-galli [4] and with Echinochloa crus-galli [8] was 70% in each case. For the same compound, the “Weed suppression rate (%) Monochoria vaginalis” value in the experiment with Monochoria vaginalis [5] and in the experiment with Monochoria vaginalis [9] was 40% in each case. In the experiment on Chenopodium album, the “herbicidal effect, Chenopodium album” value worked out at 40%. Moreover, the “herbicidal effect, Crabgrass” value in the experiment on crabgrass was 70%.
Turning to `O=C(N(CC(F)(F)F)c1ccc(F)cc1F)n1cnn(S(=O)(=O)C2CC2)c1=O` [Compound 11-144], the “herbicidal effect, Echinochloa crus-galli” value with Echinochloa crus-galli [1] is reported as 80%. Further, the “herbicidal effect, Amaranthus viridis” value in the experiment on Amaranthus viridis was 80%. Moreover, the “Weed suppression rate (%) Lindemia pyxidaria” value in the experiment on Lindernia pyxidaria [2] is 90%; in the experiment on Lindernia pyxidaria [6] it was 100%. The “Weed suppression rate (%) Scirpus juncoides” value in the experiment with Scirpus juncoides [3] and in the experiment on Scirpus juncoides [7] was 100% in each case. Further, the “Weed suppression rate (%) Echinochloa crus-galli” value with Echinochloa crus-galli [4] and in the experiment with Echinochloa crus-galli [8] was 100% each time. The entries for the “Weed suppression rate (%) Monochoria vaginalis” value in the experiment on Monochoria vaginalis [5] and with Monochoria vaginalis [9] were 80% and 100%, respectively. Besides, the “herbicidal effect, Chenopodium album” value with Chenopodium album turned out to be 60%. Further, the “herbicidal effect, Crabgrass” value with crabgrass is recorded as 80%.
As for `CC(C)N(C(=O)n1cnn(S(=O)(=O)C2CC2)c1=O)c1ccc(F)cc1Cl` [Compound 11-205], the “herbicidal effect, Echinochloa crus-galli” value in the experiment on Echinochloa crus-galli [1] is 100%. The “herbicidal effect, Amaranthus viridis” value with Amaranthus viridis was 70%. The “Weed suppression rate (%) Lindemia pyxidaria” value in the experiment with Lindernia pyxidaria [2] worked out at 100%; with Lindernia pyxidaria [6], 80%. Also, the “Weed suppression rate (%) Scirpus juncoides” value in the experiment with Scirpus juncoides [3] and with Scirpus juncoides [7] was 100% in each case. Further, the “Weed suppression rate (%) Echinochloa crus-galli” value in the experiment on Echinochloa crus-galli [4] and with Echinochloa crus-galli [8] was 100% in each case. Moreover, the “Weed suppression rate (%) Monochoria vaginalis” value with Monochoria vaginalis [5] is 90%; in the experiment on Monochoria vaginalis [9], 100%. Further, the “herbicidal effect, Chenopodium album” value with Chenopodium album is listed as 70%. In addition, the “herbicidal effect, Crabgrass” value in the experiment with crabgrass is reported as 100%.
As for `CC(C)N(C(=O)n1cnn(S(=O)(=O)C2CC2)c1=O)c1ccc(Cl)cc1F` [Compound 11-206], the “herbicidal effect, Echinochloa crus-galli” value in the experiment on Echinochloa crus-galli [1] was found to be 90%. Also, the “herbicidal effect, Amaranthus viridis” value in the experiment on Amaranthus viridis is reported as 60%. For the same compound, the “Weed suppression rate (%) Lindemia pyxidaria” value turned out to be 100% with Lindernia pyxidaria [2] and 90% in the experiment on Lindernia pyxidaria [6]. Moreover, the “Weed suppression rate (%) Scirpus juncoides” value in the experiment on Scirpus juncoides [3] is 100%; in the experiment on Scirpus juncoides [7], 90%. In addition, the “Weed suppression rate (%) Echinochloa crus-galli” value in the experiment on Echinochloa crus-galli [4] and in the experiment with Echinochloa crus-galli [8] was 100% in each case. For the same compound, the “Weed suppression rate (%) Monochoria vaginalis” value in the experiment with Monochoria vaginalis [5] came to 100%; with Monochoria vaginalis [9], 90%. The “herbicidal effect, Chenopodium album” value in the experiment with Chenopodium album stood at 60%. For the same compound, the “herbicidal effect, Crabgrass” value in the experiment with crabgrass is reported as 90%.
`CC(C)N(C(=O)n1cnn(S(=O)(=O)C2CC2)c1=O)c1ccc(Br)cc1Cl` [Compound 11-209]: the “herbicidal effect, Echinochloa crus-galli” value in the experiment with Echinochloa crus-galli [1] came to 90%. In addition, the “herbicidal effect, Amaranthus viridis” value in the experiment with Amaranthus viridis was 30%. Besides, the entries for the “Weed suppression rate (%) Lindemia pyxidaria” value in the experiment with Lindernia pyxidaria [2] and in the experiment with Lindernia pyxidaria [6] were 100% and 80%, respectively. For the same compound, the “Weed suppression rate (%) Scirpus juncoides” value with Scirpus juncoides [3] and in the experiment on Scirpus juncoides [7] was 100% in each case. In addition, the “Weed suppression rate (%) Echinochloa crus-galli” value in the experiment with Echinochloa crus-galli [4] and in the experiment on Echinochloa crus-galli [8] was 100% each time. The “Weed suppression rate (%) Monochoria vaginalis” value in the experiment with Monochoria vaginalis [5] and with Monochoria vaginalis [9] was 90% each time. Also, in the experiment on Chenopodium album, the “herbicidal effect, Chenopodium album” value is 60%. The “herbicidal effect, Crabgrass” value in the experiment on crabgrass amounted to 90%.
Turning to `Cc1cc(Cl)ccc1N(C(=O)n1cnn(S(=O)(=O)C2CC2)c1=O)C(C)C` [Compound 11-213], the “herbicidal effect, Echinochloa crus-galli” value in the experiment on Echinochloa crus-galli [1] is listed as 80%. The “herbicidal effect, Amaranthus viridis” value in the experiment on Amaranthus viridis turned out to be 90%. The “Weed suppression rate (%) Lindemia pyxidaria” value with Lindernia pyxidaria [2] came out at 90%; in the experiment on Lindernia pyxidaria [6], 80%. The “Weed suppression rate (%) Scirpus juncoides” value in the experiment on Scirpus juncoides [3] and with Scirpus juncoides [7] was 90% throughout. The “Weed suppression rate (%) Echinochloa crus-galli” value in the experiment on Echinochloa crus-galli [4] turned out to be 100%; in the experiment on Echinochloa crus-galli [8] it was 90%. Further, the “Weed suppression rate (%) Monochoria vaginalis” value with Monochoria vaginalis [5] was found to be 60%; in the experiment with Monochoria vaginalis [9], 80%. Besides, in the experiment with Chenopodium album, the “herbicidal effect, Chenopodium album” value is 80%. In addition, in the experiment on crabgrass, the “herbicidal effect, Crabgrass” value is 90%.
